Data reported in patent US12162918B2, “Periostin compounds for the treatment of haematological complications” (Chemotherapeutisches Forschungsinstitut Georg-Speyer-Haus, priority 2018, dated 2024).

System: Actin DsRed+ Lin− cells
Test: Intrafemoral cotransplantation of treated murine stroma cells with untreated Lin− cells
Type: in vivo, mice
Details: cotransplanted with warfarin- vs vehicle-treated stroma
Method: For the intrafemoral co-transplantation experiments 0.8×10^5 human CD34+ cells or 1×10^5 Lin− cells from Actin-DsRed reporter mice were mixed with 5×10^5 human or murine stroma cells which had been expanded in vitro and pretreated with vehicle or 2 μM warfarin for 14 days. The human stromal cells had been obtained via flushing of discarded bones from the orthopedic operating room, as approved of by the local ethics committee.

CC(=O)CC(c1ccccc1)c1c(O)c2ccccc2oc1=O (centres unmarked) [warfarin]
engraftment of donor-derived myeloid cells (P=0.023): decreased engraftment | engraftment of total donor bone marrow (P=0.025): decreased engraftment
